These results are taken from patent publication US11292812B2, “3′3′-cyclic dinucleotides” (Institute of Organic Chemistry and Biochemistry, ASCR, V.V.I, priority 2018, dated 2022).

Test [1] has as its target T1, WT STING (Homo sapiens, UniProt Q86WV6, H232R). In words: Digitonin assay using 293T wtSTING-FL reporter cells. It counts as cell-based. Particulars: 293T wtSTING-FL cells, ISRE firefly luciferase reporter, digitonin buffer 30 minutes, then 5 hours. The source says: Two complementary oligonucleotides of the sequence […] […] […] […] […] […] […] The oligonucleotides were mixed in equal molar amounts, hybridized, and cleaved by restriction endonucleases HindIII (cat. #. R0104S, NEB, Ipswich, USA) and BglII (cat. #R0144S, NEB, Ipswich, USA). Ultimately, they were ligated into plasmid pGL4.27 (cat. #E6651, Promega, Madison, USA) linearized with the same enzymes. As result the sequence with four ISRE sites was placed upstream of the minimum promoter of firefly luciferase reporter gene.
After 5 minutes incubation at room temperature (RT), 250 μL of the mixture was added dropwise to the cells in one well. Cells were incubated 36 hours at 37° C. with 5% CO2, and then detached with 0.05% Trypsin and 0.22 g/L EDTA (both cat. #L0941, Biowest, Riverside, USA).
Transfected cells were seeded onto poly-D-lysine coated six well plates at density 50,000 cells per 1 cm^2 in DMEM medium with high glucose containing 10% heat inactivated FBS, 30 μg/mL blasticidin (cat. #ant-bl-05, InvivoGen, San Diego, USA), 0.06 mg/ml Penicillin G and 0.1 mg/ml Streptomycin Sulfate (both cat. #. L0018, Biowest, Riverside, USA). The medium was replenished every 3-4 days until visible colonies of cells resistant to blasticidin were formed.
Blasticidin resistant cells stably expressing WT STING were further transfected with pGL64.27-4×ISRE plasmid following the same procedure as described above. […] Homogeneous culture of stably double transfected cells was prepared by limiting dilution of cells in 96 well plates and wells with cells were selected that originated from a single cell.
The medium was removed next day and three fold serial dilutions of compounds in Digitonin buffer containing 50 mmol·l^−1 HEPES (cat. #H3375, Sigma Aldrich, Czech Republic) pH 7.0, 100 mmol·l^−1 KCl, 3 mmol·l^−1 MgCl2, 0.1 mmol·l^−1 DTT (cat. #D0632, Sigma Aldrich, Czech Republic), 85 mmol·l^−1 Sucrose (cat. #S7903, Sigma Aldrich, Česká Republika), 0.2% BSA (cat. #A2153, Sigma Aldrich, Czech Republic), 1 mmol·l^−1 ATP (cat. #A1852, Sigma Aldrich, Czech Republic), 0.1 mmol·l^−1 GTP (cat. #G8877, Sigma Aldrich, Czech Republic), and 10 μg/mL Digitonin A (cat. #D141, Sigma Aldrich, Czech Republic) were added to the cells. The buffer was removed after 30 minutes incubation at 37° C. with 5% CO2, the cells were washed once with 100 μl of cultivation medium, and 100 μl of medium was added to each well. The plates with cells were incubated for 5 hours at 37° C. with 5% CO2, 50 μl of the medium was removed and 30 μl of ONE-Glo™ Luciferase Assay System reagent (cat. #E6120, Promega, Madison, USA) was added to each well. Luminesce was read on Synergy H1 (Biotek, Winooski, USA).
Target sequence in this assay (Q86WV6 whole entry H232R): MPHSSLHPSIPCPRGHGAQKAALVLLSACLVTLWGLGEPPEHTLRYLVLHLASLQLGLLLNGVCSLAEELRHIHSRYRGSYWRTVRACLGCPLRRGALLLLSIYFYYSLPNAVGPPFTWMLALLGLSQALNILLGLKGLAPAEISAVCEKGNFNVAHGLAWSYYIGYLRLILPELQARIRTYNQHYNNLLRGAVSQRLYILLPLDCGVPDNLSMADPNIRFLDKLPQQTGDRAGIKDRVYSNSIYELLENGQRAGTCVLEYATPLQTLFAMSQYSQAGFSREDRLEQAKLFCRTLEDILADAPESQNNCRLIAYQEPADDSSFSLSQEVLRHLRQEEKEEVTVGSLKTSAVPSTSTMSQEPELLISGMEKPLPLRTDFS
Background: A reporter such as luciferase makes a cellular process visible.

The target of test [2] is T1, WT STING. In words: Differential Scanning Fluorimetry with WT STING. It counts as binding. The arrangement: truncated human WT STING or AQ STING (amino acid residues 140-343); 8xHis (N, cleaved yes); SUMO (N, cleaved yes); made in house; host or cells: E. coli Rosetta-gami B (DE3). Particulars: thermal shift, truncated human WT STING 0.1 mg/ml, 150 μM CDN; for ΔTm at 150 µM: read-out: DSF ΔTm WT STING. Here is the method: (§1) Purified PCR products were cleaved with restriction enzymes BamHI (cat. #R0136S, NEB, Ipswich, USA) and NotI (cat. #R0189S, NEB, Ipswich, USA) and cloned into the pSUMO vector linearized with the identical enzymes.
(§2) DNase I (cat. #D5025, Sigma Aldrich, Czech Republic) and RNase A (cat. #R6513, Sigma Aldrich, Czech Republic) were added (final concentration 50 μg/ml) together with MgCl2 (final concentration 5 mmol·l^−1) to the homogenate and bacteria were lysed using French Press G-M™ High-Pressure Cell Press Homogenizer (1500 psi, 3 cycles). […] The resin was poured into a chromatography column, washed with 50 ml buffer A (50 mmol·l^−1 TrisCl (pH 8.0), 800 mmol·l^−1 NaCl, 3 mmol·l^−1 β-mercaptoethanol; 10% glycerol; 20 mmol·l^−1 imidazole) and 8-His-SUMO tagged STING proteins were eluted with 15 ml buffer A containing 300 mmol·l^−1 imidazole. […] Proteins were concentrated with Amicon® Ultra-15 10 K device (cat. #UFC901008, Merck Millipore, Billerica, USA) and flash frozen in liquid N2.
(§3) 20 μL solutions of the reaction mixtures were pipetted in triplicates into 96 well optical reaction plates and thermal denaturation of samples were performed on real time PCR cycler (LightCycler® 480 Instrument II—Roche, Basel, Switzerland). The first derivative of the thermal denaturation curves was performed to calculate denaturing temperatures of STING-CDN complexes and STING apoproteins. The thermal shift for each CDN was calculated by subtracting the average denaturing temperature of STING apoprotein from the average denaturing temperature of STING CDN complex.
Target sequence in this assay (Q86WV6 140-343 H232R): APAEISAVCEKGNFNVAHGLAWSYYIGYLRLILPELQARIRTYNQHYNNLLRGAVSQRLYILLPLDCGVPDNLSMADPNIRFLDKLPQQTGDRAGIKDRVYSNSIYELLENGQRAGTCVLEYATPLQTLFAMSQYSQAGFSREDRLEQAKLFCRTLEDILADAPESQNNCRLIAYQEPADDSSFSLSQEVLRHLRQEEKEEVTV
A general note: In DSF a fluorescence change marks the thermal transition of the protein.

The target in another test is T2, AQ STING (G230A-R293Q) (Homo sapiens, UniProt Q86WV6, G230A/H232R/R293Q).
T2 construct: truncated human WT STING or AQ STING (amino acid residues 140-343); 8xHis (N, cleaved yes); SUMO (N, cleaved yes); made in house; host or cells: E. coli Rosetta-gami B (DE3)
T2 sequence (Q86WV6 140-343 G230A/H232R/R293Q): as the sequence (Q86WV6 140-343 H232R) above, with G91A, R154Q counted along it
The experiment in a line: Differential Scanning Fluorimetry with AQ STING. It counts as binding. To be noted: thermal shift, truncated human AQ STING 0.1 mg/ml, 150 μM CDN; for ΔTm at 150 µM: read-out: DSF ΔTm AQ STING. As to the method: as §1, §2, §3

Take `Nc1nc2c(ncn2[C@@H]2O[C@@H]3COP(=O)(O)COC4C(O)[C@H](n5cnc6c(N)ncnc65)O[C@@H]4COP(=O)(O)OC3C2O)c(=O)[nH]1` (stereo partly drawn) [Example 3, 2-amino-9-((2R,3R,3aS,7aR,9R,10R,10aS,15aR)-9-(6-amino-9H-purin-9-yl)-3,5,10,13-tetrahydroxy-5,13-dioxidodecahydro-2H-difuro[3,2-d:3′,2′-k][1,3,7,10]tetraoxa[2,8]diphosphacyclotridecin-2-yl)-1,9-dihydro-6H-purin-6-one]: the EC50 at WT STING [1] is 12.5 µM. In addition, the values for the ΔTm at 150 µM on WT STING [2] and at AQ STING (G230A-R293Q) were 0 °C and 3.1 °C, respectively.
Turning to `Nc1nc2c(ncn2[C@@H]2O[C@@H]3COP(=O)(O)O[C@H]4[C@@H](O)[C@H](n5cnc6c(=O)[nH]c(N)nc65)O[C@@H]4COP(=O)(O)O[C@H]3[C@H]2O)c(=O)[nH]1` [3′3′-c-di-GMP, reference compound], the EC50 on WT STING [1] came out at 5.8 µM. The “DSF ΔTm WT STING” value at WT STING [2] turned out to be 2.6 °C. Besides, the “DSF ΔTm AQ STING” value on AQ STING (G230A-R293Q) is 7.7 °C.
As for `Nc1nc2c(ncn2[C@@H]2O[C@@H]3COP(=O)(O)O[C@@H]4[C@H](O)[C@@H](COP(=O)(O)O[C@@H]2[C@@H]3O)O[C@H]4n2cnc3c(N)ncnc32)c(=O)[nH]1` [2′2′-cGAMP, reference compound], the EC50 on WT STING [1] was 0.03 µM. In addition, on WT STING [2], the “DSF ΔTm WT STING” value was 11.5 °C. On AQ STING (G230A-R293Q), the “DSF ΔTm AQ STING” value is 19.4 °C.
Consider `Nc1nc2c(ncn2[C@@H]2O[C@@H]3COP(=O)(O)COC4C(F)[C@H](n5cnc6c(N)ncnc65)O[C@@H]4COP(=O)(O)OC3C2F)c(=O)[nH]1` (stereo partly drawn) [Example 8, 2-amino-9-((2R,3R,3aR,7aR,9R,10R,10aR,15aR)-9-(6-amino-9H-purin-9-yl)-3,10-difluoro-5,13-dihydrox-5,13-diox-idodecahdro-2H-difuro[3,2-d:3′,2′-k][1,3,7,10]tetraoxa[2,8]diphosphacyclotridecin-2-yl)-1,9-dihydro-6H-purin-6-one], for which the EC50 at WT STING [1] was 0.008 µM. In addition, the ΔTm at 150 µM at WT STING [2] turned out to be 10.7 °C; on AQ STING (G230A-R293Q) it was 18.6 °C.
Regarding “2-amino-9-((2R,3aS,7aR,9R,10R,10aR,15aR)-9-(6-amino-9H-purin-9-yl)-10-fluoro-5,13-dihydroxy-5,13-dioxidodecahydro-2H-difuro[3,2-d:3′,2′-k][1,3,7,10]tetraoxa[2,8]diphosphacyclotridecin-2-yl)-1,9-dihydro-6H-purin-6-one [Example 15]”, at WT STING [1], the EC50 came out at 0.11 µM. The “DSF ΔTm WT STING” value at WT STING [2] came out at 4.0 °C. In addition, the “DSF ΔTm AQ STING” value on AQ STING (G230A-R293Q) is 12.7 °C.
For “2-amino-9-((2R,3R,3aS,7aR,9R,10R,10aS,15aR)-2-(6-amino-9H-purin-9-yl)-3,5,10,13-tetrahydroxy-5,13-dioxidodecahydro-2H-difuro[3,2-d:3′,2′-k][1,3,7,10]tetraoxa[2,8]diphosphacyclotridecin-9-yl)-1,9-dihydro-6H-purin-6-one [Example 2]”, the EC50 on WT STING [1] was 10.4 µM. Also, the “DSF ΔTm WT STING” value on WT STING [2] came to 0.1 °C. Also, the “DSF ΔTm AQ STING” value on AQ STING (G230A-R293Q) turned out to be 3.3 °C.
With `Nc1nc2c(ncn2[C@@H]2O[C@@H]3COP(=O)(O)COC4C(O)[C@H](n5cnc6c(=O)[nH]c(N)nc65)O[C@@H]4COP(=O)(O)COC3C2O)c(=O)[nH]1` (stereo partly drawn) [Example 6, 9,9′-((2R,3R,3aS,8aR,10R,11R,11aS,16aR)-3,6,11,14-tetrahydroxy-6,14-dioxidododecahydrodifuro[3,2-e:3′,2′-l][1,4,8,11]tetraoxa[2,9]diphosphacyclotetradecine-2,10-diyl)bis(2-amino-1,9-dihydro-6H-purin-6-one)], the EC50 on WT STING [1] is greater than 50 µM. The values for the ΔTm at 150 µM at WT STING [2] and at AQ STING (G230A-R293Q) were 0.1 °C and 0 °C, respectively.
For the compound `Nc1ncnc2c1ncn2[C@@H]1O[C@@H]2COP(=O)(O)COC3C(O)[C@H](n4cnc5c(N)ncnc54)O[C@@H]3COP(=O)(O)COC2C1O` (stereo partly drawn) [Example 9, (2R,3S,3aS,8aR,10R,11S,11aS,16aR)-2,10-bis(6-amino-9H-purin-9-yl)-3,6,11,14-tetrahydroxvdodecahydrodifuro[3,2-e:3′,2′-l][1,4,8,11]tetraoxa[2,9]diphosphacyclotetradecine 6,14-dioxide], on WT STING [1], the EC50 is greater than 100 µM. Besides, the “DSF ΔTm WT STING” value at WT STING [2] is 0.1 °C. Moreover, the “DSF ΔTm AQ STING” value at AQ STING (G230A-R293Q) is 0.1 °C.

In general, EC50 refers to the concentration giving half of the maximal effect. The term ΔTm denotes the change in melting temperature against a reference sample.
